This is an account of results in patent US20050176826A1, “Use of asc-1 inhibitors to treat neurological and psychiatric disorders” (H. Lundbeck A/S, priority 2002, published 2005).

In experiment [1] the target is T1, D-serine uptake in rat cerebellar synaptosomes (Rattus norvegicus, UniProt P63116).
T1 construct: from tissue; host or cells: rat cerebellar synaptosomes
T1 sequence (P63116 1-530): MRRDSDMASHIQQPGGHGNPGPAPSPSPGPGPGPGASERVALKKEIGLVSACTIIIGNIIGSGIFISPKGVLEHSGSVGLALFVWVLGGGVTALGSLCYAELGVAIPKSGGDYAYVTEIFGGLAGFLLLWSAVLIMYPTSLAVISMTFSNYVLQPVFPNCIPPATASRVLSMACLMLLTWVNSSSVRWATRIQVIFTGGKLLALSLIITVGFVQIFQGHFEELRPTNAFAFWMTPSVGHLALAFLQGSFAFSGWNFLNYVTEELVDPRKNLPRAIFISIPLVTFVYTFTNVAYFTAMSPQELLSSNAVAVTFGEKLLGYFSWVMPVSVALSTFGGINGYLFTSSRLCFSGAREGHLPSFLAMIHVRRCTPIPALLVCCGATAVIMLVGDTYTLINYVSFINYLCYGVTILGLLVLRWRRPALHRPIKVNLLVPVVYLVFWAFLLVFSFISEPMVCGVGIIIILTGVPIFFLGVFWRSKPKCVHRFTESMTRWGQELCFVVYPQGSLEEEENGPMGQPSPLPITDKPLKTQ
T1 sequence (Q794F9 1-527 partner): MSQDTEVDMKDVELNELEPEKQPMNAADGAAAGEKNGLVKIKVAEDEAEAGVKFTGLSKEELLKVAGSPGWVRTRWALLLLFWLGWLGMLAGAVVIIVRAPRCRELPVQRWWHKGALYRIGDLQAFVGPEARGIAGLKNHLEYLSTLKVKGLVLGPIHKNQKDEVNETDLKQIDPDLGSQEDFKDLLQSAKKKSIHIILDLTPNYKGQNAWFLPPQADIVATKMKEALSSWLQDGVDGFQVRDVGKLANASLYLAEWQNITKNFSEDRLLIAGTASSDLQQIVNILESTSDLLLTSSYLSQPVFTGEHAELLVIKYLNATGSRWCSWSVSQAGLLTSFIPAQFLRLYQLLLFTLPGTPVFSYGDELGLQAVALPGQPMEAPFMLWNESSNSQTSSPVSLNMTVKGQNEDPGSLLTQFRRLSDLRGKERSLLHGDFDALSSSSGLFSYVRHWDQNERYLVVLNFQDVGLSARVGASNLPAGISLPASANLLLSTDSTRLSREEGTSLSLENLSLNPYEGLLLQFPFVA
Put plainly: [3H]D-serine uptake in rat cerebellar synaptosomes. The class given is biochemical.

Experiment [2] addresses T2, D-serine-sensitive Na+-independent transporter in rat cortical membranes (Rattus norvegicus, UniProt P63116).
T2 construct: from tissue; host or cells: rat cerebral cortex membranes (P2 synaptosomes), male Wistar rats
T2 sequence (P63116 1-530): T1 sequence (P63116 1-530)
T2 sequence (Q794F9 1-527 partner): T1 sequence (Q794F9 1-527 partner)
In words: Na+-independent [3H]D-serine uptake into rat cortical membranes (synaptosomes). The class given is biochemical. The method, then: Into cortical membranes: Cortex from male Wistar rats (150-200 g) was homogenized in 0.40 M sucrose and centrifuged at 1000×g for 10 min. […] Test compounds and tissue (1 mg orig. tissue/well) were added to 96 well plates and incubated with [^3H]-D-serine (specific activity=26.8 Ci/mmol, PerkinElmer, Cambridge, U.K.) (100 nM final concentration) for 5 min at 25° C. Samples were filtered on Unifilter GF/B glass fiber (Packard Biosciences, Meriden, Conn., USA) and washed with 3×0.25 mL assay buffer. Measurements of [^3H]-D-serine uptake into whole HEK293 cells expressing human asc-1 were performed in 96 well plates with similar conditions except that the cells were incubated for 15 min with radioligand and washed by dipping twice in cold assay buffer following incubation with radioligand. Accumulated radioactivity was extracted from the cells by adding 200 μL scintillation fluid/well (Ultima Gold, Packard Biosciences) and the plates were counted in a Microplates Scintillation Counter (Packard Biosciences). The D-serine uptake in samples containing test compounds was compared to controls without added compound or controls where transport via the asc-1 was inhibited by addition of e.g. 30 mM L-alanine.

The target of experiment [3] is noradrenaline (NA) uptake (Rattus norvegicus, UniProt Q63380). Put plainly: [3H]noradrenalin uptake into rat cortical synaptosomes. The class given is biochemical. As to conditions: read-out: Ki, block of noradrenaline transport. The method, then:
(§1) Inhibition of serotonin (5-HT), dopamine (DA) and noradrenaline (NA) uptake in vitro was measured in rat brain synaptosomes using a modification of a previously described protocol (Bøgesø et al., J Med Chem 1985, 28, 1817-1828). In brief, tritium labelled amines were used to measure uptake into synaptosomes from whole rat brain (excluding cerebellum) ([^3H]serotonin), rat striatal synaptosomes ([^3H]dopamine) or into rat cortical synaptosomes [^3H]noradrenalin. The dissected rat brain regions were homogenized in 0.40 M sucrose supplemented with 1 mM nialamid and centrifuged at 1000×g for 10 min. The supernatants were further centrifuged for 30 min at 20.000×g, 4° C. and resuspended in Krebs-Ringer buffer, pH 7.4 supplemented with 0.2 g/l ascorbic acid. Test compounds and membranes were added in 96 well plates and the incubation was started by adding either 10 nM [^3H]serotonin, 12.5 nM [^3H]dopamine or 10 nM [^3H]noradrenalin for 15 min at 37° C. except for [^3 H]dopamine uptake (5 min at 20° C.). Non-specific uptake was defined as uptake in the presence of 10 μM citalopram, 100 μM benttropin or 20 μM talsupram, respectively and accounted for 5-10% of total uptake. Samples were filtered over Whatman GF/C filters and the IC50's were estimated using non-linear regression analysis from at least 8 points dose-response curves with triplicate determinations.

In the next experiment the target is T3, serotonin (5-HT) uptake (Rattus norvegicus, UniProt P31652).
T3 construct: from tissue; host or cells: synaptosomes from whole rat brain excluding cerebellum
In words: [3H]serotonin uptake into rat brain synaptosomes. The class given is biochemical. As for the experimental part: as §1

The next experiment has as its system System A transporters. The settings on record: at 5 mM; cultured rat hepatocytes; cited from earlier work.

Structures are written as SMILES.

noradrenaline (NA) uptake, sequence (Q63380 1-617): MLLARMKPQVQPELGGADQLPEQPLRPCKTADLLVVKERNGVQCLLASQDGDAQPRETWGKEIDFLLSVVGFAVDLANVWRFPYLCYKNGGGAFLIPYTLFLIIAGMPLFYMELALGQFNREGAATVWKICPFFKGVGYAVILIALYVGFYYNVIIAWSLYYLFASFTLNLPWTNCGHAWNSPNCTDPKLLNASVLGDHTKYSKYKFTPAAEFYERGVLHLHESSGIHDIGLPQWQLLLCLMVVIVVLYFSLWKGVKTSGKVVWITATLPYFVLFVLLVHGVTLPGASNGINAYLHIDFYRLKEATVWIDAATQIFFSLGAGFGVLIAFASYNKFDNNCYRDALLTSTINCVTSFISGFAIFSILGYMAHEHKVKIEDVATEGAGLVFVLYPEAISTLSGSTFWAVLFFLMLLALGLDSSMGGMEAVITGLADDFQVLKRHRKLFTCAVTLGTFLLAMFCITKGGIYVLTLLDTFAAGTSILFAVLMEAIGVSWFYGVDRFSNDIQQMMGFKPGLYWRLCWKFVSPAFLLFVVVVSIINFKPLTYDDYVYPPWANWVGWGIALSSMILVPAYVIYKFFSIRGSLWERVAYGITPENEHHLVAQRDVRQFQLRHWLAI
T3 sequence (P31652 whole entry): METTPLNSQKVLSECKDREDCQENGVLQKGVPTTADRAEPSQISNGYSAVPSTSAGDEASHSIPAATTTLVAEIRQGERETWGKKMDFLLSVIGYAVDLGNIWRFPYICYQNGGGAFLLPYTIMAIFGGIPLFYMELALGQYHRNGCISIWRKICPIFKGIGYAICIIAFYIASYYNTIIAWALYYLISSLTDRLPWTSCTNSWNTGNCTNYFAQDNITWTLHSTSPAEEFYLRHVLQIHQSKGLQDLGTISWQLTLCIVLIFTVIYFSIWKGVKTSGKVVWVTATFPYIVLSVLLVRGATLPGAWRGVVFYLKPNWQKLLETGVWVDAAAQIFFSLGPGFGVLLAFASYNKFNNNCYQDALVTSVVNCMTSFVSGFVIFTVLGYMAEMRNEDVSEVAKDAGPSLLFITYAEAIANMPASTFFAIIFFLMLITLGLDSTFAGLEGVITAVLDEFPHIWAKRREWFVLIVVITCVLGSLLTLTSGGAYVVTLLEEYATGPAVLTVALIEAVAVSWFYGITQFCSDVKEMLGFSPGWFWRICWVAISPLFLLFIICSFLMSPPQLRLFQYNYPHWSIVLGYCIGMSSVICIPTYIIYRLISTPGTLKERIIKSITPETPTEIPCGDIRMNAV

Broadly, the Ki is a measure of affinity in units of concentration, obtained from inhibition or displacement. As to `CSCC(N)C(=O)O` (stereo in doubt) [(S)-methyl-L-cysteine], the “inhibition of D-serine uptake in rat cerebellar synaptosomes (in words)” value in experiment [1] is “potent and selective inhibitor”. The inhibition constant Ki in experiment [2] was 6.6 ± 1.8 µM; in experiment [3], greater than 1000 µM; on serotonin (5-HT) uptake, greater than 1000 µM. Also, the “inhibition of System A transporters ([3H]AIB transport)” value with System A transporters is recorded as 81%.
